Results on 2 compounds are retold here after patent US7604947B2, “Detection and modulation of cancer stem cells” (Cornell Research Foundation, Inc., priority 2004, dated 2009).

“Also recorded” adds a separate entry of the source.

For experiment [1], the system named is human REX-1 protein. Nature of the experiment: Western blot of human REX-1 protein after retinoic acid treatment, HEKa cells. In kind it is cell-based. The settings on record: RA 1 μM for 48 hours. From the text: (§1) The following human carcinoma and leukemia cell lines were maintained as directed by the ATCC: breast cancer cells: MCF-7, MDA-MB-231, MDA-MB-453, MDA-MB-468, SK-BR3 and HS578T; prostate cancer cells: LnCAP; skin cancer cells: SCC-12, SCC-13; kidney cancer cells: SK-39; bladder cancer cells: HTB1, HT1376, HTB9; oral cavity (head and neck) cancer: SCC-4, SCC-9, SCC-25, SCC-15; leukemia cells: HL-60, NB4 and NTERA2 teratocarcinoma cells. Normal human mammary (HMEC); renal proximal tubule epithelial cells (RPTE); prostate epithelial cells (PrEC), keratinocytes (NHEK) and lung (NHBE, SAEC) epithelial cells were grown as directed by the supplier (Cambrex, Walkersville, Md.). Normal human keratinocytes were also purchased from Cascade Biologics (Portland, Oreg.) and cultured as directed. Non-tumorous bladder cancer samples were provided by Dr. Stephen Boorjian (Weill Medical College, Cornell University, NY, N.Y.) and are as described in Boorjian, S, Tickoo, S K, Mongan, N P et al. Reduced Lecithin:Retinol Acyltransferase (LRAT) Expression Correlates with Increased Pathologic Tumor Stage in Bladder Cancer. Clinical Cancer Research 2004; 10:In press. Normal and All-trans-retinoic acid (RA) (Sigma, St. Louis, Mo.) was dissolved in ethanol and used at a final concentration of 20 nM or 1 μM as indicated in the descriptions of the figures. […]

In experiment [2] the test system is human REX-1 protein. The experiment can be described thus: Western blot of human REX-1 protein after retinoic acid treatment, MDA-MB-468 cells. It is filed as cell-based. The settings on record: RA 1 μM for 48 hours.
Description: as §1

In the next experiment the test system is hRex1. The experiment can be described thus: RT-PCR of hRex1 expression after retinoic acid treatment. It is filed as cell-based, human. The settings on record: MDA-MB-468 cells.
Experiment [3] has as its system polyclonal rabbit anti-human REX-1 antibody. Nature of the experiment: Immunohistochemistry peptide competition of anti-REX-1 antibody staining in normal renal parenchyma. It is filed as binding. The settings on record: 1 μg/mL free peptide, normal renal parenchyma sections. The method, then: Paraffin-embedded sections. Five micron tissue sections were cut from the patient blocks, and the sections were deparaffinized in Histoclear™(National Diagnostics, Atlanta, Ga.) followed by rehydration in a graded series of ethanol. Antigen retrieval was performed by heat with the Antigen Unmasking Solution (Vector Laboratories, Burlingame, Calif.) in a pressure cooker for 8 minutes. A 3% solution of H2O2 was used to quench the endogenous peroxidase activity (15 minute incubation). […] This was followed by incubation with the affinity-purified, polyclonal rabbit antihuman REX-1 primary antibody diluted 1:5 in 1.5% goat serum for 45-60 min. at room temperature, and then with 100 μL of horseradish peroxidase (HRP) conjugated goat anti-rabbit secondary antibody (SuperPicture, Zymed, San Francisco, Calif.) for 30 minutes at room temperature. Color was developed with the 3,3′-diaminobenzidine chromogen substrate, followed by counterstaining with hematoxylin (Vector). The negative control normal and tumor sections were treated identically to all other sections, with the exception that 1.5% normal goat serum was used in place of the primary antibody. […] All samples were analyzed using this identical protocol with the same reagents. The staining procedures were repeated at least three times with similar results.

For `CC1=C(/C=C/C(C)=C/C=C/C(C)=C/C(=O)O)C(C)(C)CCC1` [RA, All-trans-retinoic acid], the “level of human REX-1 protein following RA treatment” value with human REX-1 protein [1] and with human REX-1 protein [2] was “did not alter; also recorded: unaltered” throughout. Besides, the “expression of hRex1 following RA treatment” value is “not reduced” in the experiment with hRex1 and “does not decrease” in the experiment with hRex1 (listed as retinoic acid).
Consider “SNNLKAHILTHANTNKNEQEGK (listed as Homo sapiens) [free human REX-1 peptide]”, for which, in experiment [3], the “REX-1 antibody staining in presence of free peptide” value is recorded as “staining was eliminated”.
